Results published in patent publication US4259332A, “Novel taurine derivatives” (priority 1979, dated 1981).
Like-named read-outs stand apart in the source and are kept apart here.

What was measured:
[1] = Vasodilator activity (vasodilation of the ocular conjunctiva in guinea pigs); assay type: in vivo, guinea pig
[2] = Protection against hepatic intoxication by CCl4 and cold, Compound B (BSF in blood); assay type: in vivo; conditions: 500 mg/kg endoperitoneal
Method: Oral administration of 5 ml/kg of a 20% solution of CCl4 in oil, with simultaneous endoperitoneal administration of 500 mg/kg of Compound B, was followed by exposure for 5 hours at 4° C. BSF in the blood (30 mg/kg i.v.) was tested. A comparison product, homocysteinethiolactone (OCT) was employed.
10 Animals were treated per group, and the results expressed as percentage change with respect to the controls were as shown in Table 4.

[3] = Choleretic activity in cannulated rats; assay type: in vivo, rat; conditions: for Bile dry residue change / Bile volume change / Bile dry residue after 2 h / Bile volume after 2 h: 100 mg/kg i.v.; for Bile dry residue after 2 h / Bile volume after 2 h: given after first hour; for Bile dry residue after 1 h / Bile volume after 1 h: before treatment (first hour)
Method: Rats were fitted with a cannula, the bile volume was measured after the first hour, they were then treated with a test compound and the bile volume was measure after the second hour, so as to determine the percentage change. The various compounds were administered intravenously at a dose of 100 mg/kg.

[4] = assay type: in vivo, rat; conditions: fasted rats, oral, 225 mg/Kg acetylsalicylic acid
Method: Rats which had not been fed for 24 hours were used. The AST product was administered orally as the acid or the sodium salt at a dosage of 335 mg/Kg suspended in 1% carboxymethylcellulose. […] Both the methods of treatment and the observation time were identical for the 3 groups of animals.

[5] = Analgesic activity: convulsions produced by phenylquinone; assay type: in vivo, mouse; conditions: oral, ASA 200, AST 300 mg/Kg
Method: (A) Test of convulsions produced by phenylquinone injected into mice by the intraperitoneal route. The AST product was administered orally both in the acid form (AST Ac). and as the sodium salt (AST Na). It was compared with a molar equivalent dosage of acetylsalicylic acid and with a carboxymethylcellulose placebo. The convulsions were induced at varying intervals from the oral treatment counting from the first 20 minutes after the injection of phenylquinone.

[6] = Analgesic activity: mechanical pressure test on inflamed rat's paw; assay type: in vivo; conditions: oral, ASA 200, AST 300 mg/Kg
Method: (B) Mechanical pressure test on inflamed rat's paw. The AST product was administered both in the acid and sodium salt form by the oral method. It was compared with a molar equivalent dosage of acetylsalicylic acid and with a carboxymethylcellulose placebo. The inflammation of the paw was induced by a local injection of yeast simultaneously with the oral treatment with the drugs and the tenderness was measured in grams of mechanical pressure required to cause a reaction in the animal.

[7] = Edema resulting from yeast in the paw of the rat; assay type: in vivo; conditions: oral, ASA 200, AST 300 mg/Kg
Method: (A) Edema resulting from yeast in the paw of the rat. The AST product was administered orally both in the acid and sodium salt form. It was compared with a molar equivalent dose of acetylsalicylic acid and with carboxymethylcellulose placebo. The edema of the paw was induced with a local injection of the yeast simultaneously with the oral treatment with the drugs, and the volume of the paw was measured in hundredths of milliliter.

[8] = Edema as a result of nystatin in the rat's paw; assay type: in vivo; conditions: p.o.
Method: (B) Edema as a result of nystatin in the rat's paw. The long duration of this type of edema enabled the animals to be repeatedly treated in order to ascertain the presence if any of the protracted effect of the AST product also using parenteral administration. The comparison was carried out using a molar equivalent dose of acetylsalicylic acid administrated orally and with the carboxymethylcellulose placebo also only administered orally. The AST product was used in the acid form orally and in the salt form using intraperitoneal administration.
The dosages of the drugs, always proportional to one another, were varied from day to day, i.e.: the first day a dosage of 200 mg/Kg of ASA and 300 mg/Kg of AST; the second day a double dose of each; the third day a double dose of each divided into two equal components administered with a spacing of 9 hours (10 am and 7 pm respectively); the fourth day no treatment in order to check the length of the effect after the fourth administration.
The […] was injected into the paw on the night before the first treatment with the drugs and the volume of the paw was measured in hundredths of milliliter.

[9] = Antipyretic activity: pyrexia from subcutaneous yeast in the rat; assay type: in vivo; conditions: p.o., ASA 200, AST 300 mg/Kg
Method: Pyrexia from subcutaneous yeast in the rat. The AST product was administered orally in the acid from and the salt form with sodium, and by the intraperitoneal method in the salt form. It was compared with a molar equivalent dose of acetylsalicylic acid administered orally and with a carboxymethylcellulose placebo. The pyrexia was induced with a subcutaneous injection of yeast on the evening prior to the drug treatment, i.e. 16 hours before.

[10] = mouse, literature, cited from earlier work
[11] = Antilipemic action, Morris or Handler diet, Compound A; assay type: in vivo, Wistar rat; conditions: 50 days, 200 mg/kg orally
Method: Wistar rats were treated for 50 days with a Morris diet or a Handler diet. Simultaneously with the diet they received 200 mg/kg of Compound A or of choline orally every day. The controls only received the diet. The following were examined at the end of the treatment: (a) total cholesterol, total lipids and beta-lipoproteins in the serum, (b) BSF excretion in the bile.

[12] = Antilipemic action, Morris, Handler or Nath diet, Compound B; assay type: in vivo, Wistar rat; conditions: 45 days, 200 mg/kg orally
Method: Wistar rats were treated for 45 days with a Morris diet, a Handler diet or a Nath diet. Simultaneously with the diet they received each day 200 mg/kg of Compound B or choline (except for the Nath diet) orally.

## O=C(OC1C(OC(=O)c2cccnc2)C(OC(=O)c2cccnc2)C(OC(=O)c2cccnc2)C(OC(=O)c2cccnc2)C1OC(=O)c1cccnc1)c1cccnc1 (centres unmarked) [Mesoinosital hexanicotinate, mesoinosital hexanicotinate]
[1]; 1.0 mg/kg endoperitoneal
  Vasodilator effect: duration: 0 min
  Vasodilator effect: positive response: 0%
[1]; 10.0 mg/kg endoperitoneal
  Vasodilator effect: duration: 87 min
  Vasodilator effect: positive response: 100%
  Vasodilator effect: time of appearance: 81 s

## NC1CCSC1=O (centres unmarked) [OCT, homocysteinethiolactone, reference compound]
[2]; test number 1
  Hepatic intoxication protection, percentage change of BSF in blood vs controls: -22.7%
[2]; test number 2
  Hepatic intoxication protection, percentage change of BSF in blood vs controls: -18.5%

## O=S(=O)(O)CCNCCO [N-hydroxyethyltaurine]
[3]
  Bile dry residue change: -10.9%
  Bile volume change: -12.2%
  Bile dry residue after 2 h: 26.0 mg/h
  Bile volume after 2 h: 0.72 mL/h
  Bile dry residue after 1 h: 29.1 mg/h
  Bile volume after 1 h: 0.82 mL/h

## O=C(O)c1cccnc1 [Nicotinic acid, nicotinic acid]
[1]; 10.0 mg/kg endoperitoneal
  Vasodilator effect: duration: 0 min
  Vasodilator effect: positive response: 0%
  Vasodilator effect: time of appearance: 0 s
[1]; 25.0 mg/kg endoperitoneal
  Vasodilator effect: positive response: 20%
[1]; 50.0 mg/kg endoperitoneal
  Vasodilator effect: duration: 87 min
  Vasodilator effect: positive response: 80%
  Vasodilator effect: time of appearance: 180 s

## CCC(C(=O)O)C1(O)CCC(c2ccccc2)CC1 (stereo not drawn) [α-(1-hydroxy-4-phenylcyclohexyl)butyric acid]
[3]
  Bile dry residue change: +39.1%
  Bile volume change: +90.0%
  Bile dry residue after 2 h: 32.7 mg/h
  Bile volume after 2 h: 1.14 mL/h
  Bile dry residue after 1 h: 23.5 mg/h
  Bile volume after 1 h: 0.60 mL/h

## O=C(O)C(O)C(O)C(=O)O.OCc1cccnc1 (centres unmarked) [3-Pyridylcarbinol tartrate, 3-pyridylcarbinol tartrate]
[1]; 0.1 mg/kg endoperitoneal
  Vasodilator effect: duration: 0 min
  Vasodilator effect: positive response: 0%
  Vasodilator effect: time of appearance: 0 s
[1]; 1.0 mg/kg endoperitoneal
  Vasodilator effect: positive response: 40%
[1]; 10.0 mg/kg endoperitoneal
  Vasodilator effect: duration: 120 min
  Vasodilator effect: positive response: 100%
  Vasodilator effect: time of appearance: 57 s

## CC(=O)Oc1ccccc1C(=O)O [ASA, acetylsalicylic acid, reference compound]
[4]
  Haemorrhagic gastric ulcers: 5 to 10
[5]; 1h
  Inhibition % of convulsions in respect of treatment with placebo: 23%
[5]; 2h
  Inhibition % of convulsions in respect of treatment with placebo: 37%
[5]; 4h
  Inhibition % of convulsions in respect of treatment with placebo: 17%
[6]; 1h
  % Inhibition of the hyperalgesia in respect of treatment with placebo: 27%
[6]; 5h
  % Inhibition of the hyperalgesia in respect of treatment with placebo: 0%
[7]; 1h
  Inhibition of the edema with respect to treatment with placebo: 41
[7]; 3h
  Inhibition of the edema with respect to treatment with placebo: 51
[7]; 5h
  Inhibition of the edema with respect to treatment with placebo: 55
[8]; 1st day, 2h after 1st dose, ASA 200, AST Ac 300 mg/Kg
  % Inhibition of the edema in respect of treatment with placebo: 8%
[8]; 1st day, 4h after 1st dose, ASA 200, AST Ac 300 mg/Kg
  % Inhibition of the edema in respect of treatment with placebo: 10%
[8]; 1st day, 8h after 1st dose, ASA 200, AST Ac 300 mg/Kg
  % Inhibition of the edema in respect of treatment with placebo: 7%
[8]; 2nd day, 2h after 2nd dose, ASA 400, AST Ac 600 mg/Kg
  % Inhibition of the edema in respect of treatment with placebo: 10%
[8]; 2nd day, 4h after 2nd dose, ASA 400, AST Ac 600 mg/Kg
  % Inhibition of the edema in respect of treatment with placebo: 11%
[8]; 2nd day, 8h after 2nd dose, ASA 400, AST Ac 600 mg/Kg
  % Inhibition of the edema in respect of treatment with placebo: 15%
[8]; 3rd day, 2h after 3rd dose, ASA 200, AST Ac 300 mg/Kg
  % Inhibition of the edema in respect of treatment with placebo: 8%
[8]; 3rd day, 4h after 3rd dose, ASA 200, AST Ac 300 mg/Kg
  % Inhibition of the edema in respect of treatment with placebo: 11%
[8]; 3rd day, 8h after 3rd dose, ASA 200, AST Ac 300 mg/Kg
  % Inhibition of the edema in respect of treatment with placebo: 14%
[8]; 4th day, 13h after 4th dose, ASA 200, AST Ac 300 mg/Kg
  % Inhibition of the edema in respect of treatment with placebo: 9%
[8]; 4th day, 17h after 4th dose, ASA 200, AST Ac 300 mg/Kg
  % Inhibition of the edema in respect of treatment with placebo: 12%
[8]; 4th day, 23h after 4th dose, ASA 200, AST Ac 300 mg/Kg
  % Inhibition of the edema in respect of treatment with placebo: 8%
[9]; 1h
  % Inhibition of the pyrexia in respect of treatment with placebo: 78%
[9]; 2h
  % Inhibition of the pyrexia in respect of treatment with placebo: 103%
[9]; 4h
  % Inhibition of the pyrexia in respect of treatment with placebo: 114%
[9]; 6h
  % Inhibition of the pyrexia in respect of treatment with placebo: 58%
[9]; 8h
  % Inhibition of the pyrexia in respect of treatment with placebo: 45%
[10]; intraperitoneal
  LD50: 420 mg/kg
[10]; oral
  LD50: 1,050 mg/kg

## C[N+](C)(C)CCO [Choline, choline, reference compound]
[11]; Handler diet
  Bile BSF excretion, percentage change vs controls: -39.5%
  Serum total cholesterol, percentage change vs controls: -21.1%
  Serum total lipids, percentage change vs controls: +44.2%
[11]; Morris diet
  Bile BSF excretion, percentage change vs controls: -2.8%
  Serum beta-lipoproteins, percentage change vs controls: +89.8%
  Serum total cholesterol, percentage change vs controls: -22.9%
  Serum total lipids, percentage change vs controls: +2.3%
[12]; Handler diet, B and Choline
  Bile BSF, percentage change vs control: -39.5%
  Liver total lipids, percentage change vs control: -29.2%
  Serum total cholesterol, percentage change vs control: -21.1%
  Serum total lipids, percentage change vs control: +44.2%
[12]; Morris diet
  Bile BSF, percentage change vs control: -2.8%
  Liver total lipids, percentage change vs control: +14.0%
  Serum beta-lipoproteins, percentage change vs control: +89.8%
  Serum total cholesterol, percentage change vs control: -22.9%
  Serum total lipids, percentage change vs control: +2.3%
